Assay results reported in ChEMBL document CHEMBL4342404, “Anti-cholinesterase hybrids as multi-target-directed ligands against Alzheimer's disease (1998-2018)” (Bioorg Med Chem, 2019).
pIC50: −log10 of the molar value.

Molecular target: Cholinesterase (Homo sapiens, UniProt P06276)
Experiment: Inhibition of human serum butyrylcholinesterase using butyrylthiocholine iodide as substrate preincubated for 20 mins followed by substrate addition by Ellman's method
Settings: not given

Chain of Cholinesterase (P06276 whole entry): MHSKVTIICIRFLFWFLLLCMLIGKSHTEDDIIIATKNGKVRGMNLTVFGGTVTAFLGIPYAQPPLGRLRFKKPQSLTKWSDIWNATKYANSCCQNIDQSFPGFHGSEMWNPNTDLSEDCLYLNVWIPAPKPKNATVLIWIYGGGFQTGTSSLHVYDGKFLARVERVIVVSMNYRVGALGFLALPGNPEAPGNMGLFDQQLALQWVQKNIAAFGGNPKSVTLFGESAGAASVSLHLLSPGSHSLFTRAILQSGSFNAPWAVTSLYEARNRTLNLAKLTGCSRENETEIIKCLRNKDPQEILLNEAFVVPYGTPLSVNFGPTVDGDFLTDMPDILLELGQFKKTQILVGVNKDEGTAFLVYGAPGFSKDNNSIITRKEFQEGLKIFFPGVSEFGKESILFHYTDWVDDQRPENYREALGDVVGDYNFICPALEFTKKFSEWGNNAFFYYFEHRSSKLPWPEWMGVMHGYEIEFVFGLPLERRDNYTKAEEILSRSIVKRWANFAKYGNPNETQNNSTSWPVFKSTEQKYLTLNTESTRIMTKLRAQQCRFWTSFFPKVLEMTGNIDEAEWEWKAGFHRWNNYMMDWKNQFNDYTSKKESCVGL

| Compound | pIC50 |
| --- | --- |
| c1ccc2c(NCCSSCCNc3c4c(nc5ccccc35)CCCC4)c3c(nc2c1)CCCC3 | 8.25 |

Species on record: Homo sapiens
Experiment: Selectivity index, ratio of IC50 for human plasma butyrylcholinesterase to IC50 for human erythrocyte acetylcholinesterase
Settings: not given

| Compound | Selectivity Index |
| --- | --- |
| COc1cc2oc(-c3ccc(NCCCNc4c5c(nc6cc(Cl)ccc46)CCCC5)cc3)cc(=O)c2c(OC)c1OC | 92 |
| COc1cc2oc(-c3ccc(NCCCCNc4c5c(nc6cc(Cl)ccc46)CCCC5)cc3)cc(=O)c2c(OC)c1OC | 1690 |
| COc1cc2oc(-c3ccc(NCCNc4c5c(nc6cc(Cl)ccc46)CCCC5)cc3)cc(=O)c2c(OC)c1OC | 742 |

Molecular target: T1, Acetylcholinesterase (Rattus norvegicus, UniProt P37136)
T1 sequence (P37136 whole entry): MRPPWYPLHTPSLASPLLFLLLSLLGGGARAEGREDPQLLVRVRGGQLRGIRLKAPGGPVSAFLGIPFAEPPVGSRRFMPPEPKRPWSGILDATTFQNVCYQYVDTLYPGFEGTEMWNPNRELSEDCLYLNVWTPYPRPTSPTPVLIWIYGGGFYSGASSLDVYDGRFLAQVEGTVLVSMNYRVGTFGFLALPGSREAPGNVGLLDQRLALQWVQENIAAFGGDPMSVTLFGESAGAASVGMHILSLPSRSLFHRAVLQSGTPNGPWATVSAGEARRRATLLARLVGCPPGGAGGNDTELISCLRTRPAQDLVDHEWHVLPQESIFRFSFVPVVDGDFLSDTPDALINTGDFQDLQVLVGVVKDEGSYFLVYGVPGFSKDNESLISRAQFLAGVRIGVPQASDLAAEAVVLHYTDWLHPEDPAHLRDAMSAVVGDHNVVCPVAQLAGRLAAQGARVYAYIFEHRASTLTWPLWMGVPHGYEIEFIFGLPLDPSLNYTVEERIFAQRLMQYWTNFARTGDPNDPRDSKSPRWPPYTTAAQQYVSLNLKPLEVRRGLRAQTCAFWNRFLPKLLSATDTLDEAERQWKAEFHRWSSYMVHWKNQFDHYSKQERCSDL
Experiment: Antagonist activity at Acetylcholinesterase in Sprague-Dawley rat phrenic nerve-hemidiaphragm assessed as reversal of d-tubocurarine induced neuromuscular blockade after 15 mins
Settings: read-out: I50

| Compound | pIC50 |
| --- | --- |
| CC1=C[C@@H]2Cc3nc4cc(F)ccc4c(N)c3[C@H](C1)C2 | 7.31 |
| CC1=CC2Cc3nc4cc(Cl)ccc4c(N)c3C(C1)C2 (racemic) [HUPRINE Y] | 7.07 |
| CC1=CC2Cc3nc4cc(Cl)ccc4c(N)c3C(C1)C2 (single isomer, unassigned; (-)) [HUPRINE Y] | 7.50 |
| CCC1=CC2Cc3nc4ccccc4c(N)c3C(C1)C2 (racemic) | 7.08 |
| CC1=CC2Cc3nc4ccccc4c(N)c3C(C1)C2 (racemic) | 6.75 |

Molecular target: Acetylcholinesterase (Homo sapiens, UniProt P22303)
Sequence (P22303 whole entry): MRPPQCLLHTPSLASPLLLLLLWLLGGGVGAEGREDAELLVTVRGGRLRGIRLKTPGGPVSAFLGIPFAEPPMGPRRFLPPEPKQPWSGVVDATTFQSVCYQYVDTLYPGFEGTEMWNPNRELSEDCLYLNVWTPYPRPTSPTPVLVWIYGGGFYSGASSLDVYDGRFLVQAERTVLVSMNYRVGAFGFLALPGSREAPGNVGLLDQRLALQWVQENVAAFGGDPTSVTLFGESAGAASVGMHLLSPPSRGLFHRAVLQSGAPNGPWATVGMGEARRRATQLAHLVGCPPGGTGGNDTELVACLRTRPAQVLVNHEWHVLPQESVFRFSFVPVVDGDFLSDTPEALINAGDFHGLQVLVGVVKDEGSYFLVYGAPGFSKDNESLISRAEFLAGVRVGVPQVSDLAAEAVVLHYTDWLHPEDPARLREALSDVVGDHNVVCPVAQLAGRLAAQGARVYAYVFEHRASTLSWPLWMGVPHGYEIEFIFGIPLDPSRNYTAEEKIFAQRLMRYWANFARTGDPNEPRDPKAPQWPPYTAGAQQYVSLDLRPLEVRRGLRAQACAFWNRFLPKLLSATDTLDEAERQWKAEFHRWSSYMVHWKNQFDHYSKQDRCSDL
Experiment: Potency index, ratio of tacrine IC50 for human erythrocyte acetylcholinesterase to compound IC50 for homogenate acetylcholinesterase
Settings: not given

| Compound | Ratio IC50 |
| --- | --- |
| O=C(CCCCCCCNc1c2c(nc3cc(Cl)cc(Cl)c13)CCCC2)NCCc1c[nH]c2ccccc12 | 70 to 43000 |
| COc1ccc2[nH]cc(CCNC(=O)CCCCCNc3c4c(nc5cc(Cl)cc(Cl)c35)CCCC4)c2c1 | 70 to 43000 |
| COc1ccc2[nH]cc(CCNC(=O)CCCCCCCNc3c4c(nc5ccccc35)CCCC4)c2c1 | 70 to 43000 |
| O=C(CCCCCCCNc1c2c(nc3ccccc13)CCCC2)NCCc1c[nH]c2ccc(O)cc12 | 70 to 43000 |
| O=C(CCCCCCNc1c2c(nc3cc(Cl)ccc13)CCCC2)NCCc1c[nH]c2ccccc12 | 70 to 43000 |
| O=C(CCCCCCCNc1c2c(nc3ccccc13)CCCC2)NCCc1c[nH]c2ccccc12 | 70 to 43000 |
| O=C(CCCCCNc1c2c(nc3c(Cl)cccc13)CCCC2)NCCc1c[nH]c2ccccc12 | 70 to 43000 |
| O=C(CCCCCCNc1c2c(nc3ccccc13)CCCC2)NCCc1c[nH]c2ccccc12 | 70 to 43000 |
| COc1ccc2[nH]cc(CCNC(=O)CCCCCNc3c4c(nc5ccccc35)CCCC4)c2c1 | 70 to 43000 |
| O=C(CCCCCNc1c2c(nc3ccc(F)cc13)CCCC2)NCCc1c[nH]c2ccccc12 | 70 to 43000 |
| S=C(CCCCCCCNc1c2c(nc3ccccc13)CCCC2)NCCc1c[nH]c2ccccc12 | 70 to 43000 |
| O=C(CCCCCNc1c2c(nc3cc(Cl)cc(Cl)c13)CCCC2)NCCc1c[nH]c2ccccc12 | 70 to 43000 |
| COc1ccc2[nH]cc(CCNC(=O)CCCCNc3c4c(nc5ccccc35)CCCC4)c2c1 | 70 to 43000 |
| S=C(CCCCCNc1c2c(nc3ccccc13)CCCC2)NCCc1c[nH]c2ccccc12 | 70 to 43000 |
| O=C(CCCCCCNc1c2c(nc3cc(Cl)cc(Cl)c13)CCCC2)NCCc1c[nH]c2ccccc12 | 70 to 43000 |
| COc1ccc2[nH]cc(CCNC(=O)CCCCCNc3c4c(nc5cc(Cl)ccc35)CCCC4)c2c1 | 70 to 43000 |
| O=C(CCCCCNc1c2c(nc3ccccc13)CCCC2)NCCc1c[nH]c2ccc(O)cc12 | 70 to 43000 |
| COc1ccc2[nH]cc(CCNC(=O)CCCCCCNc3c4c(nc5ccccc35)CCCC4)c2c1 | 70 to 43000 |
| COc1ccc2[nH]cc(CCNC(=O)CCCCCNc3c4c(nc5cccc(Cl)c35)CCCC4)c2c1 | 70 to 43000 |
| O=C(CCCCCNc1c2c(nc3ccccc13)CCCC2)NCCc1c[nH]c2ccccc12 | 70 to 43000 |
| O=C(CCCCNc1c2c(nc3ccccc13)CCCC2)NCCc1c[nH]c2ccccc12 | 70 to 43000 |
| O=C(CCCCCNc1c2c(nc3cc(Cl)ccc13)CCCC2)NCCc1c[nH]c2ccccc12 | 70 to 43000 |
| COc1ccc2[nH]cc(CCNC(=O)CCCCCCNc3c4c(nc5cc(Cl)cc(Cl)c35)CCCC4)c2c1 | 70 to 43000 |

Test system: not listed separately
Experiment: Antioxidant activity of compound by ORAC-FL assay relative to trolox
Format: functional
Settings: not given

| Compound | Ratio |
| --- | --- |
| COc1cc(/C=C/C(=O)N(CCC2CCN(Cc3ccccc3)CC2)CC(=O)NCc2ccccc2)ccc1O | 4.8 to 8.71 |
| COc1cc(/C=C/C(=O)N(CC(=O)NCc2ccccc2)C2CCN(Cc3ccccc3)CC2)ccc1O | 4.8 to 8.71 |
| COc1cc(/C=C/C(=O)N(CCC2CCN(Cc3ccccc3)CC2)CC(=O)Nc2ccc3ccccc3c2)ccc1O | 4.8 to 8.71 |
| COc1cc(/C=C/C(=O)N(CCCC2CCN(Cc3ccccc3)CC2)CC(=O)Nc2c(C)cccc2Cl)ccc1O | 4.8 to 8.71 |
| COc1cc(/C=C/C(=O)N(CCC2CCN(Cc3ccccc3)CC2)CC(=O)Nc2c(C)cccc2Cl)ccc1O | 4.8 to 8.71 |
| COc1ccc2[nH]cc(CCNC(=O)CN(C(=O)/C=C/c3ccc(O)c(OC)c3)C3CCN(Cc4ccccc4)CC3)c2c1 | 4.8 to 8.71 |
| COc1cc(/C=C/C(=O)N(CCCC2CCN(Cc3ccccc3)CC2)CC(=O)NCc2ccccc2)ccc1O | 4.8 to 8.71 |
| COc1cc(/C=C/C(=O)N(CC(=O)Nc2ccc3ccccc3c2)C2CCN(Cc3ccccc3)CC2)ccc1O | 4.8 to 8.71 |
| COc1cc(/C=C/C(=O)N(CC(=O)Nc2c(C)cccc2Cl)C2CCN(Cc3ccccc3)CC2)ccc1O | 4.8 to 8.71 |
| COc1cc(/C=C/C(=O)N(CCCC2CCN(Cc3ccccc3)CC2)CC(=O)Nc2ccc3ccccc3c2)ccc1O | 4.8 to 8.71 |

Molecular target: T2, Acetylcholinesterase (Mus musculus, UniProt P21836)
T2 sequence (P21836 whole entry): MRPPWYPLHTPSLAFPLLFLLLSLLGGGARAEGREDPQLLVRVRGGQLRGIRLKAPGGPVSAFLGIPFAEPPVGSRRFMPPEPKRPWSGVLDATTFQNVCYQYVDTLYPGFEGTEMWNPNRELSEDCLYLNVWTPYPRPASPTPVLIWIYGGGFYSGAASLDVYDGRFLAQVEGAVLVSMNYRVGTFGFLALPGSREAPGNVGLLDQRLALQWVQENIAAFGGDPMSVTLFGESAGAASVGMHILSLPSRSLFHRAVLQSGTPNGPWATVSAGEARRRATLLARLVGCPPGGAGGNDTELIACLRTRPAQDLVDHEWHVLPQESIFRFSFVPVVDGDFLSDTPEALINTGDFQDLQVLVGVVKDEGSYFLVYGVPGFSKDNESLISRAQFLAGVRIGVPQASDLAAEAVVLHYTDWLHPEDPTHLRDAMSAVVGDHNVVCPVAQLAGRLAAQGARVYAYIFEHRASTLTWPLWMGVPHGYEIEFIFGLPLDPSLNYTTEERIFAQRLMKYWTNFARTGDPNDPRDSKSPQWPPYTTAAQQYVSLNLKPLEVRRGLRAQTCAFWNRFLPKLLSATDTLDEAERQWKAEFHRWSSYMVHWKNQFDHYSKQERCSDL
Experiment: Inhibition of mouse brain acetylcholinesterase by Ellman's method
Settings: not given

| Compound | pIC50 |
| --- | --- |
| CNC(CCOc1ccc([N+](=O)[O-])cc1)c1ccc(OC(=O)N(C)C)cc1 (racemic) | 6.90 |
| CN(C)C(=O)Oc1ccc([C@@H](N)CCOc2ccc([N+](=O)[O-])cc2)cc1 | 7.00 |
| CN(C)C(=O)Oc1ccc2c(c1)C=CCN[C@@H]2CCOc1ccc([N+](=O)[O-])cc1 | 7.85 |
| CN[C@@H](CCOc1ccc([N+](=O)[O-])cc1)c1ccc(OC(=O)N(C)C)cc1 | 7.00 |
| CN[C@H](CCOc1ccc([N+](=O)[O-])cc1)c1ccc(OC(=O)N(C)C)cc1 | 6.84 |

Molecular target: Sodium-dependent serotonin transporter (Rattus norvegicus, UniProt P31652)
Sequence (P31652 whole entry): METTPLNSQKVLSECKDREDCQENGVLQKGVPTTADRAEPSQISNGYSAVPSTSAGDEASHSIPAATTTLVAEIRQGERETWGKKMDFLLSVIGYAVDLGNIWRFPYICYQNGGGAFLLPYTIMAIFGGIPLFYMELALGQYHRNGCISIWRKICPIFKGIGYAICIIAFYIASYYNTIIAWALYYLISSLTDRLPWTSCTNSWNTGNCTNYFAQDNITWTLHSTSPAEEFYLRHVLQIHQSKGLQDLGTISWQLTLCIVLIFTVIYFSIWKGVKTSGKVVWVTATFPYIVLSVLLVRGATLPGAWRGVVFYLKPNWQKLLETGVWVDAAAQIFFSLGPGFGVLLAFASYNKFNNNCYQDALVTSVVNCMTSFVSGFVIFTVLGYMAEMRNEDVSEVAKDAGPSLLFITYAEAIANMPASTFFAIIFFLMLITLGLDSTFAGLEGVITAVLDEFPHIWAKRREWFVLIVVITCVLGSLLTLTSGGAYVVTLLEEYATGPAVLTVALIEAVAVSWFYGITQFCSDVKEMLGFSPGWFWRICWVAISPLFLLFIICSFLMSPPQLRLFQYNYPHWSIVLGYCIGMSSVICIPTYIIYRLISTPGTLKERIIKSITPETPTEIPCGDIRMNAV
Experiment: Inhibition of rat synaptosome SERT assessed as reduction in [3H]5-HT uptake
Settings: not given

| Compound | pIC50 |
| --- | --- |
| CN(C)C(=O)Oc1ccc2c(c1)C=CCN(C)[C@H]2CCOc1ccc([N+](=O)[O-])cc1 | 6.03 |
| CNC(CCOc1ccc([N+](=O)[O-])cc1)c1ccc(OC(=O)N(C)C)cc1 (racemic) | 7.36 |
| CN(C)C(=O)Oc1ccc([C@@H](N)CCOc2ccc([N+](=O)[O-])cc2)cc1 | 7.38 |
| CN(C)C(=O)Oc1ccc2c(c1)C=CCN[C@@H]2CCOc1ccc([N+](=O)[O-])cc1 | 8.22 |
| CN[C@@H](CCOc1ccc([N+](=O)[O-])cc1)c1ccc(OC(=O)N(C)C)cc1 | 7.38 |
| CN[C@H](CCOc1ccc([N+](=O)[O-])cc1)c1ccc(OC(=O)N(C)C)cc1 | 6.87 |

Molecular target: Butyrylcholinesterase (Rattus norvegicus) (UniProt Q9JKC1)
Sequence (Q9JKC1 as listed by the source): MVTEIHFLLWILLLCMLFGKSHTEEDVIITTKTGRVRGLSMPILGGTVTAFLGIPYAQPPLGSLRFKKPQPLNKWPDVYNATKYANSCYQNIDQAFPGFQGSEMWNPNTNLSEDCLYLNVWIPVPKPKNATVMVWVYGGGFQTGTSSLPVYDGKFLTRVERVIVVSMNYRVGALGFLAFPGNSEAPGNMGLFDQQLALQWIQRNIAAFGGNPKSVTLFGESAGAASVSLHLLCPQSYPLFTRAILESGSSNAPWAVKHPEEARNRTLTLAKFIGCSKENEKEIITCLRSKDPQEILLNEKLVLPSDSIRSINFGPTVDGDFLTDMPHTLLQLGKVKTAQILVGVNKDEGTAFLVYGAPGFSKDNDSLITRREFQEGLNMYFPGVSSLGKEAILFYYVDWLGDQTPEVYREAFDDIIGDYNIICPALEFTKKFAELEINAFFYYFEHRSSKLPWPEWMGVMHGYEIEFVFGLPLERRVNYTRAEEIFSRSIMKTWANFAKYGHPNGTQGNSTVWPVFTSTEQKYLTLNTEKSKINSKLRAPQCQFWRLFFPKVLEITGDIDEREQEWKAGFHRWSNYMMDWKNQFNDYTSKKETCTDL
Experiment: Inhibition of rat serum butyrylcholinesterase using butyrylthiocholine iodide as substrate at 50 uM incubated for 15 mins by Ellman's method relative to control
Settings: not given

| Compound | inhibition [%] |
| --- | --- |
| CCN(CC)Cc1ccc(/C=C/c2cnc(C)c3c2COC(C)(C)O3)cc1O | 8.9 |

Molecular target: Acetylcholinesterase (Electrophorus electricus, UniProt O42275)
Sequence (O42275 whole entry): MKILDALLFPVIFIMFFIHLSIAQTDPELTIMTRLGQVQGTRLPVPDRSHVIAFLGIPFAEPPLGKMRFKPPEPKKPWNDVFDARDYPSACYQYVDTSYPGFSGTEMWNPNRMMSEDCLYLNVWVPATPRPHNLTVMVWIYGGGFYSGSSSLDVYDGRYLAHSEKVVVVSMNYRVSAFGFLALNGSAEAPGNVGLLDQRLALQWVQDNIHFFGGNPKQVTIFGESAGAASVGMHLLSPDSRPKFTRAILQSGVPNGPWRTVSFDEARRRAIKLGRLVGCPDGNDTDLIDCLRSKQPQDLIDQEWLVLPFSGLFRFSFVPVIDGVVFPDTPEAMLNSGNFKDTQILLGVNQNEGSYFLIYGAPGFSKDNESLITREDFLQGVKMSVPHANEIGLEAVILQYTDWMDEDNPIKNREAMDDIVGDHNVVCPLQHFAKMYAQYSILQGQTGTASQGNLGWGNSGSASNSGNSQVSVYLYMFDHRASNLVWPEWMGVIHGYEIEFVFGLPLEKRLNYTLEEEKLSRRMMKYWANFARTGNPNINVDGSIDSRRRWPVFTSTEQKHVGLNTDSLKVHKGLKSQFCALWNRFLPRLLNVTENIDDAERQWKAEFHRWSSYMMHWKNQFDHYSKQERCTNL
Experiment: Inhibition of electric eel AChE using acetylthiocholine iodide as substrate preincubated for 15 mins followed by substrate addition and measured at 1 min intervals by Ellman's method
Settings: not given

| Compound | pIC50 |
| --- | --- |
| COc1ccc2[nH]cc(CCNC(=O)/C=C\C(=O)Nc3ccc4c(c3)C(=O)c3cccc5ccnc-4c35)c2c1 | 5.21 |
| Cc1ccc2[nH]cc(CCNC(=O)/C=C\C(=O)Nc3ccc4c(c3)C(=O)c3cccc5ccnc-4c35)c2c1 | 5.29 |
| O=C(/C=C/C(=O)Nc1ccc2c(c1)C(=O)c1cccc3ccnc-2c13)NCCc1c[nH]c2ccc(F)cc12 | 5.63 |
| O=C(/C=C\C(=O)Nc1ccc2c(c1)C(=O)c1cccc3ccnc-2c13)NCCc1c[nH]c2ccc(F)cc12 | 4.83 |

Molecular target: Acetylcholinesterase (Electrophorus electricus) (UniProt O42275)
Sequence (O42275 24-633 limits assumed): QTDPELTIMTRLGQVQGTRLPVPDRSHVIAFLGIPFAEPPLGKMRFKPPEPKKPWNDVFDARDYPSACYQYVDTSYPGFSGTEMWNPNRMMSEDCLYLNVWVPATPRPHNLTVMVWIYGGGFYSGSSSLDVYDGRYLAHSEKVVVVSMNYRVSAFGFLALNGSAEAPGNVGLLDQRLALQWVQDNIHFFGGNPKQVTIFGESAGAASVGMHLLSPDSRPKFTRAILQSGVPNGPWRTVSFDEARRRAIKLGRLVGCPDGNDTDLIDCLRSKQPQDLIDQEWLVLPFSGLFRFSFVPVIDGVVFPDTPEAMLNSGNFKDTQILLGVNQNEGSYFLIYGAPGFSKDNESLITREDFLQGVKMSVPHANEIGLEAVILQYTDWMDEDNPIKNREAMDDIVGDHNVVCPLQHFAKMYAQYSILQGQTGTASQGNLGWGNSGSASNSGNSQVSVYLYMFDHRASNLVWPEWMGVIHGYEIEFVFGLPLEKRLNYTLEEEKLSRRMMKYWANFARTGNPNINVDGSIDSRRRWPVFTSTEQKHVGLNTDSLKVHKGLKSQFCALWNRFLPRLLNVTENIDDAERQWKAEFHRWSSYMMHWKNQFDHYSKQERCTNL
Experiment: Inhibition of electric eel AChE-induced amyloid beta 1 to 40 (unknown origin) aggregation at 100 uM incubated for 8 hrs by thioflavin-T fluorescence method relative to control
Settings: not given

| Compound | inhibition [%] |
| --- | --- |
| COc1ccc2[nH]cc(CCNC(=O)/C=C\C(=O)Nc3ccc4c(c3)C(=O)c3cccc5ccnc-4c35)c2c1 | 50.4 |
| Cc1ccc2[nH]cc(CCNC(=O)/C=C\C(=O)Nc3ccc4c(c3)C(=O)c3cccc5ccnc-4c35)c2c1 | 57.7 |
| O=C(/C=C/C(=O)Nc1ccc2c(c1)C(=O)c1cccc3ccnc-2c13)NCCc1c[nH]c2ccc(F)cc12 | 60.5 |
| O=C(/C=C\C(=O)Nc1ccc2c(c1)C(=O)c1cccc3ccnc-2c13)NCCc1c[nH]c2ccc(F)cc12 | 32.5 |
